According to patent US20180169123A1, “COMBINATION THERAPY WITH A FLAVAGLINE AND 2-DEOXYGLUCOSE” (Ruprecht-Karls-Universitat Heidelberg, priority 2015, published 2018):

Columns and labels:
Format in all cases: cell-based
HCT116 cells = assay: MTT assay, IC50 of flavaglines with and without 2DG (Example 2); conditions: HCT116 (FIG. 1A); flavagline 10-100 nM with 1 mM 2DG versus flavagline alone; 48 h
Source text: (§1) FIG. 1: Determination of IC50 of Rocaglamide and FL3. Treatment schemes are illustrated by different line patterns explained on the right side of each graphic. Solid lines with squares represent treatment with Rocaglamide, dotted lines with circles represent treatment with Rocaglamide and 2DG in combination, dotted lines with triangles represent treatment with FL3, and dotted lines with rhombus represent treatment with FL3 and 2DG in combination. X axis represents treatment doses of flavaglines (Rocaglamide or FL3), y axis represents relative cell viability (determined by MT assay) in %; cells not treated with flavaglines are used as a reference (corresponding to 100% viability). A. HCT116 cells. B. HT29 cells. C: normal human PBMCs.
(§2) The MTT (MethylThiazol Tetrazolium) assay was the same as in Example 1. Colorectal cancer cells (HCT116 and HT29) as well as normal human PBMCs were plated in flat-bottom 96-well plates at a cell number of 10,000 and 100,000, respectively, in 100 μl of medium per well. […] (Roswell Park Memorial Institute, Gibco, Paisley, UK) supplemented with 10% fetal bovine serum and 1% penicillin/streptomycin (Gibco, N.Y., USA) medium was used for cell culturing and plating of tumor cells. Medium for PBMCs consisting of Iscove's modified DMEM (IMDM) supplemented by 10% human AB serum, 1% L-glutamin and 0,05% gentamycin was used for plating PBMCs. After plating, rocaglamide and FL3 were applied at five increasing concentrations (10, 25, 50, 75 and 100 nM) as single substances and in combination with 1 mM 2DG. Cells were then incubated with drugs in a CO2 chamber at 5% CO2 concentration (Memmert Incubator, Büchenbach, Germany) for 48 hours. Afterwards, 20 μl of MTT reagent (Promega, Madison, Wis., USA) were added to each well. Cells were incubated for 1 hour at 37° C. as above. To determine the amount of viable cells after the treatment the absorption was measured at a wave length of 485 nm in ELISA reader device (TECAN GENios, Salzburg, Austria). All measurements were carried out in quadruplicates.
(§3) Mean values and standard deviations were calculated from the measured values after background subtraction. As background, absorption was measured in wells containing only medium.

normal human PBMCs = assay: as above; conditions: normal human PBMCs (FIG. 1C); flavagline 10-100 nM with 1 mM 2DG versus flavagline alone; 48 h
Source text: as §1, §2, §3

HT29 cells = assay: as above; conditions: HT29 (FIG. 1B); flavagline 10-100 nM with 1 mM 2DG versus flavagline alone; 48 h
Source text: as §1, §2, §3

in vitro = conditions: human
Method: (§4) FIG. 3: Cell viability of […] cells treated with 2DG (1 mM or 4 mM) and of PBMCs treated with 2DG (1 mM) alone or in combination with Rocaglamide (0.1 μM, 0.025 μM, 0.01 μM).

tumor cell lines = assay: MTT cell viability assay, number of responding cell lines (Example 1); conditions: 2-DG 1 mM alone; 48 h
Method: (§5) The MTT (MethylThiazol Tetrazolium) assay was used to determine cell viability. The MTT assay is a colorimetric method for measuring the activity of cellular enzymes that reduce the tetrazolium dye, MTT, to its insoluble formazan, giving a purple color. This method was used in the present experiments to reflect the number of viable cells present and to measure cytotoxicity (loss of viable cells).
Cells were plated in flat-bottom 96-well plates at a cell number of 10,000 in 100 p of medium per well. RPMI 1640 (Roswell Park Memorial Institute, Gibco, City, State) supplemented with fetal bovine serum (10%) and penicillin/streptomycin (1%) medium was used for cell culturing and plating. After plating, cells were incubated at 37° C. in an incubator at 5% CO2 concentration for 24 hours before the beginning of treatment. […]
To determine the amount of viable cells after the treatment, the absorption was measured at a wave length of 485 nm with the help of an ELISA reader device (TECAN GENios, Austria). […] Mean values and standard deviations were calculated from the measured values after background subtraction. As background, absorption was measured in wells containing medium alone.
2-DG treatment at a concentration of 1 mM induced a significant response (reduction of viability to less than 80% of the untreated cells) in 9 out of 15 cell lines analyzed.

U138MG cells = assay: Cell viability with 2DG alone or combined with Rocaglamide (Example 4, FIG. 3); conditions: Mus musculus, U138-MG, 4 mM 2DG alone
Method: as §4
In order to evaluate the potential of Rocaglamide to reduce the dose of 2DG while at the same time maintaining its antitumoral effect, combinations of different doses of 2DG with Rocaglamide were evaluated in U138MG cells ([…]). The cell-killing effect of the combination of Rocaglamide and 2DG was then compared with the effect of 2DG alone.

U373 = assay: MTT cell viability assay, tumor cell line (Example 1); conditions: Homo sapiens, U373 MG, 48 h, relative to untreated cells, read-out: Cell viability after treatment
Method: as §5
(§6) Cells were plated in flat-bottom 96-well plates at a cell number of 10,000 in 100 p of medium per well. RPMI 1640 (Roswell Park Memorial Institute, Gibco, City, State) supplemented with fetal bovine serum (10%) and penicillin/streptomycin (1%) medium was used for cell culturing and plating. After plating, cells were incubated at 37° C. in an incubator at 5% CO2 concentration for 24 hours before the beginning of treatment. After that, when cells became adherent, the medium was removed and 2-DG and rocaglamide were added to the cells at a concentration of 1 mM and 0.1 μM, respectively. After 48 hours of incubation, 20 μl of MTT reagent was added to each well. Cells were incubated for 1 hour at 37° C. before colorimetric assessment
(§7) To determine the amount of viable cells after the treatment, the absorption was measured at a wave length of 485 nm with the help of an ELISA reader device (TECAN GENios, Austria). All measurements were carried out in quadruplicate. Mean values and standard deviations were calculated from the measured values after background subtraction. As background, absorption was measured in wells containing medium alone.

C3 = assay: as above; conditions: 48 h, relative to untreated cells, read-out: Cell viability after treatment
Method: as §5, §6, §7

HCT116 = assay: as above; conditions: Homo sapiens, 48 h, relative to untreated cells, read-out: Cell viability after treatment
Method: as §5, §6, §7

RKO = assay: as above; conditions: Homo sapiens, 48 h, relative to untreated cells, read-out: Cell viability after treatment
Method: as §5, §6, §7

K073 = assay: as above; conditions: 48 h, relative to untreated cells, read-out: Cell viability after treatment
Method: as §5, §6, §7

SW480 = assay: as above; conditions: Homo sapiens, 48 h, relative to untreated cells, read-out: Cell viability after treatment
Method: as §5, §6, §7

SMA560 = assay: as above; conditions: Mus musculus, 48 h, relative to untreated cells, read-out: Cell viability after treatment
Method: as §5, §6, §7

NCH89 = assay: as above; conditions: Homo sapiens, 48 h, relative to untreated cells, read-out: Cell viability after treatment
Method: as §5, §6, §7

LNT229 = assay: as above; conditions: 48 h, relative to untreated cells, read-out: Cell viability after treatment
Method: as §5, §6, §7

HT29 = assay: as above; conditions: Homo sapiens, 48 h, relative to untreated cells, read-out: Cell viability after treatment
Method: as §5, §6, §7

NCH82 = assay: as above; conditions: Homo sapiens, 48 h, relative to untreated cells, read-out: Cell viability after treatment
Method: as §5, §6, §7

H146 = assay: as above; conditions: Homo sapiens, 48 h, relative to untreated cells, read-out: Cell viability after treatment
Method: as §5, §6, §7

GL261 = assay: as above; conditions: Mus musculus, 48 h, relative to untreated cells, read-out: Cell viability after treatment
Method: as §5, §6, §7

COc1cc(OC)c2c(c1)O[C@@]1(c3ccc(Br)cc3)[C@H](c3ccccc3)C[C@@H](O)[C@@]21O [FL3, (1R,3S,3aR,8bS)-3a-(4-Bromophenyl)-6,8-dimethoxy-3-phenyl-2,3,3a,8b-tetrahydro-1H-cyclopenta[b]benzofuran-1,8b-diol]
change of IC50 of the flavagline in combination with 2DG (HCT116 cells): substantially reduced | change of IC50 of the flavagline in the presence of 2DG (normal human PBMCs): increased | change of IC50 of the flavagline in combination with 2DG (HT29 cells): substantially reduced

OC[C@H]1OC(O)C[C@@H](O)[C@@H]1O (stereo partly drawn) [2DG, (4R,5S,6R)-6-(hydroxymethyl)oxane-2,4,5-triol]
viability at 48 h, 1 mM (in vitro): 81.7% | cell lines with significant response (reduction of viability to less than 80% of the untreated cells) (tumor cell lines): 9 out of 15 | viability at 4000 µM (U138MG cells; U136MG cells, read-out: cell viability compared to the untreated control): 46% | cytotoxicity at 4000 µM (U138MG cells; U138MG cells, read-out: reduction of cell viability compared to the untreated control): 54% | viability at 1000 µM (U373; 2DG 1 mM alone): 95.6% | viability at 1000 µM (C3; 2DG 1 mM alone): 103% | viability at 1000 µM (HCT116; HCT-116, 2DG 1 mM alone): 82% | viability at 1000 µM (RKO; 2DG 1 mM alone): 118% | viability at 1000 µM (K073; 2DG 1 mM alone): 89.6% | viability at 1000 µM (SW480; 2DG 1 mM alone): 70.8% | viability at 1000 µM (SMA560; SMA-560, 2DG 1 mM alone): 102% | viability at 1000 µM (NCH89; 2DG 1 mM alone): 83.7% | viability at 1000 µM (LNT229; 2DG 1 mM alone): 113% | viability at 1000 µM (HT29; HT-29, 2DG 1 mM alone): 87.5% | viability at 1000 µM (NCH82; 2DG 1 mM alone): 68.3% | viability at 1000 µM (H146; NCI-H146, 2DG 1 mM alone): 90.5% | viability at 1000 µM (GL261; 2DG 1 mM alone): 63.8%

COc1ccc([C@@]23Oc4cc(OC)cc(OC)c4[C@]2(O)[C@H](O)[C@H](C(=O)N(C)C)[C@H]3c2ccccc2)cc1 [Rocaglamide, (1R,2R,3S,3aR,8bS)-1,8b-dihydroxy-6,8-dimethoxy-3a-(4-methoxyphenyl)-N,N-dimethyl-3-phenyl-2,3-dihydro-1H-cyclopenta[b][1]benzofuran-2-carboxamide]
change of IC50 of the flavagline in combination with 2DG (HCT116 cells): substantially reduced | change of IC50 of the flavagline in the presence of 2DG (normal human PBMCs): increased | change of IC50 of the flavagline in combination with 2DG (HT29 cells): substantially reduced | viability at 0.1 µM (U373; rocaglamide 0.1 μM alone): 76.4% | viability at 0.1 µM (C3; rocaglamide 0.1 μM alone): 45.3% | viability at 0.1 µM (HCT116; HCT-116, rocaglamide 0.1 μM alone): 14.8% | viability at 0.1 µM (RKO; rocaglamide 0.1 μM alone): 42.9% | viability at 0.1 µM (K073; rocaglamide 0.1 μM alone): 35.9% | viability at 0.1 µM (SW480; rocaglamide 0.1 μM alone): 59.5% | viability at 0.1 µM (SMA560; SMA-560, rocaglamide 0.1 μM alone): 92.8% | viability at 0.1 µM (NCH89; rocaglamide 0.1 μM alone): 56.6% | viability at 0.1 µM (LNT229; rocaglamide 0.1 μM alone): 100% | viability at 0.1 µM (HT29; HT-29, rocaglamide 0.1 μM alone): 52.3% | viability at 0.1 µM (NCH82; rocaglamide 0.1 μM alone): 63.2% | viability at 0.1 µM (H146; NCI-H146, rocaglamide 0.1 μM alone): 47.3% | viability at 0.1 µM (GL261; rocaglamide 0.1 μM alone): 58.2%
